Reference: patent publication US20110039779A1, “IGF-1R BINDING PROTEINS AND ANTAGONISTS” (priority 2007, published 2011)
pIC50: −log10 of the molar value. Like-named read-outs stand apart in the source and are kept apart here.

How the values were obtained:
SW480 cells = assay type: cell-based
Procedure: For cell growth/density studies, a mitochondrial activity assay was used, as exemplified by the following. Cells (SW480, MCF-7S8) were propagated in complete medium (DME: F12, 10% FCS (SW 480) or 5% FCS (MCF-7S8, P/S)), trypsinized, and seeded in 96 well plates as 10,000 cells/well in medium with 0.5% FCS. All wells in the periphery were omitted and only filled with medium. […] All treatments are made in triplicates. […] Treatment was continued for 48 hours (SW480 cells) or 72 hours (MCF-7S8 cells) before quantification of the cell density. Media was exchanged each day. Media and peptides were diluted in DMSO. When measuring cell density, the volume of each well was adjusted to […] Pre-diluted WST-1 (1 ml+1.5 ml DME:F12) was added as 25 μL to each well including background samples. Three wells with media only served as background controls. The cells were incubated for 90 min protected against light in an incubator.

MCF7 cells = MCF7 cells (Homo sapiens, UniProt P08069); assay: antagonism assay in starved MCF7 cells, luminescence viability, 72 hrs; assay type: cell-based; conditions: Table 9
Chain of MCF7 cells (P08069 31-736): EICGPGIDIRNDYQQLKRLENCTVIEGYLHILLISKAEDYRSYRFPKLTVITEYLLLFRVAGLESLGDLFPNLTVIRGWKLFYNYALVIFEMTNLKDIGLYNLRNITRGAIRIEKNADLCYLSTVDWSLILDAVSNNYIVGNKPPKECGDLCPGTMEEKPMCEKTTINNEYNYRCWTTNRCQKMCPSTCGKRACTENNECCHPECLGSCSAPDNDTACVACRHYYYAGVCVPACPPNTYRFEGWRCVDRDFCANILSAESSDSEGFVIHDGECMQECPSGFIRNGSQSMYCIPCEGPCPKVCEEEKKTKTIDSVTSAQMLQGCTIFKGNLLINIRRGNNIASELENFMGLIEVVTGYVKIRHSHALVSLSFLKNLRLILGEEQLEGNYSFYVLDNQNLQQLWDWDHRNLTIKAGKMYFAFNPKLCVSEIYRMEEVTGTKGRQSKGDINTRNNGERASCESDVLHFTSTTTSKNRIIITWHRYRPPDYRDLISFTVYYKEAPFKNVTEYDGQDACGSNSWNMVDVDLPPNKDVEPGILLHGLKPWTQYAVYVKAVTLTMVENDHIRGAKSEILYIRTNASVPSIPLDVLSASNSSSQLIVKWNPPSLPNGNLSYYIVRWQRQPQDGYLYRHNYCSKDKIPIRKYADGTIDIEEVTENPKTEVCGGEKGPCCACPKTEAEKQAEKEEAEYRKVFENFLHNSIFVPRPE
Procedure: Additional binding and antagonism assays using candidate peptides were performed. […] Cell viability was determined by luminescence assay and IC50 was calculated using standard techniques.

purified HIGF-1R = target: T1, purified HIGF-1R (Homo sapiens, UniProt P08069); assay: IGF-1R activation kinase assay; assay type: biochemical; conditions: FIG. 2
T1 construct: HIGF-1R was purified from a cell culture of BHK cells stably transfected with IGF-1R cDNA; made in house; host or cells: BHK cells stably transfected with IGF-1R cDNA
T1 sequence (P08069 31-736 limits assumed): as the sequence (P08069 31-736) above
T1 sequence (P08069 741-1367 limits assumed): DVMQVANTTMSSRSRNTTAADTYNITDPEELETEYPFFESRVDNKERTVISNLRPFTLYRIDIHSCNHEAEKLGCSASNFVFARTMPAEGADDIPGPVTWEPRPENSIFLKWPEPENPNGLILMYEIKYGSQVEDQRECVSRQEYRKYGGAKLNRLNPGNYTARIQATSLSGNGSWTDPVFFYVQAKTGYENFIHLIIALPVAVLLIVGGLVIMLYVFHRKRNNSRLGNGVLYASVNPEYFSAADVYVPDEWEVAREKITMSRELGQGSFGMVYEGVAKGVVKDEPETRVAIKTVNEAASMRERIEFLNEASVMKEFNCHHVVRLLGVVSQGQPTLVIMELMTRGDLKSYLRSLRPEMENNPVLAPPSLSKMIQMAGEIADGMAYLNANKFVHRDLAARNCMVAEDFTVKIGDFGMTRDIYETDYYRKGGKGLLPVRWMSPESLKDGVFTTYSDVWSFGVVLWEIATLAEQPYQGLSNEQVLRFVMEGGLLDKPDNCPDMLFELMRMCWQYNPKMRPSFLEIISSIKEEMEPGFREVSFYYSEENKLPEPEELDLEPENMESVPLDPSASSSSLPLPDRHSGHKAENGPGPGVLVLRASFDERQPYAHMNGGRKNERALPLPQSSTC
Procedure: For determining IGF-1R activation with test peptides, a kinase assay, generally using the following conditions was employed. A solution of each test peptide in kinase buffer (Hepes 100 mM (pH 8.0), MgCl2 8 mM, MnCl2 6 mM, Triton X100 0.1% v/v, BSA 0.2% w/v, 4 μg/ml IRS-1 peptide (Biotin-[…] in PBS+1 mg/ml)) was prepared. Samples were mixed in a microtiter plate in triplicate. 50 μl 2× kinase buffer was added into each well. […] Volume was adjusted to 88 μL, before addition of purified HIGF-1R (2 μl/well). Plates were shaken and incubated for 50 min. at room temperature (RT). DTT and 10 μl/well ATP were added and the wells incubated for 10 min. before stopping the reaction by adding 10 μl stop-buffer (50 mM EDTA (pH 8.0))/well and shaking. The samples were then transferred to streptavidin coated plates and incubated for 1 hour at RT. The coated plates were aspirated and washed 3 times with TBS-T. […] P-tyr Ab-PO (Phosphotyrosine-RC20:HRPO (1:1000) in TBS-T) was added and each plate was incubated for 30 min at RT. The plates were aspirated and washed 3 times with TBS-T. 100 μl TMB-One-substrate (Kem-En-Tec Diagnostics A/S—Denmark) (preheated to RT) was then added and the plates further incubated for approximately 20 min at RT. This reaction was stopped by adding 10 μl H2SO4 and the plates were read in an ELISA-reader at […] within 5-10 min. thereafter. […]

[1] = first value of the cell: concentration needed to blunt the effect of 10 nM IGF-1, cells in words only = effect as reported, 48 hours
[2] = read-out: IC50 in SW480 (M) in presence of IGF-1/alone: alone, second value of the cell: concentration needed to inhibit basal level in 0.5% FCS
[3] = read-out: IC50 in SW480 (M) in presence of IGF-1/alone: in presence of IGF-1, first value of the cell: concentration needed to blunt the effect of 10 nM IGF-1, cells in words only = effect as reported, 48 hours
[4] = read-out: IC50, inhibition of IGF-1 (10 nM)-induced proliferation of SW480 cells, experiment 13262-015
[5] = read-out: IC50, inhibition of IGF-1 (10 nM)-induced proliferation of SW480 cells, experiment 13262-016

Compound: SAAQLFFQESFYDWFLRQVAESSQPN [Peptide F162]
- IC50 in SW480 (M) in presence of IGF-1/alone: in presence of IGF-1 (SW480 cells; [1]): No effect

Compound: SFYSCLESLVTGPAEKSRGQWEGCRK [Peptide F292]
- IC50 (SW480 cells; [2]): 1e-06 M
- IC50 (SW480 cells; [3]): 1e-07 M

Compound: EGRVDDAFYENFERQLGE [Peptide F213]
- IC50 in SW480 (M) in presence of IGF-1/alone: in presence of IGF-1 (SW480 cells; [1]): No effect
- IC50 (SW480 cells; [3]): 2e-06 M

Compound: Ac-ESDVWAQPQRRNDWPGYHWLSR [Peptide F288]
- IC50 in SW480 (M) in presence of IGF-1/alone: in presence of IGF-1 (SW480 cells; [1]): No effect

Compound: NFYGCLLDLSLGVPSFGWRRRCITA [Peptide F408]
- Activity (MCF7 cells): Antagonist

Compound: EVTSAGQWEGYEWFLGALHAE [Peptide F210]
- IC50 in SW480 (M) in presence of IGF-1/alone: in presence of IGF-1 (SW480 cells; [1]): No effect

Compound: SACQFDCHENFYDWFAROVSGOAAYG [Peptide F161]
- IC50 in SW480 (M) in presence of IGF-1/alone: in presence of IGF-1 (SW480 cells; [1]): No effect

Compound: ENRSGELWEGYGWFNMQVRGE [Peptide F212]
- IC50 in SW480 (M) in presence of IGF-1/alone: in presence of IGF-1 (SW480 cells; [1]): No effect

Compound: EFGTGYGGDGGGYWSGYEWLAW [Peptide F207]
- IC50 in SW480 (M) in presence of IGF-1/alone: in presence of IGF-1 (SW480 cells; [1]): No effect
- IC50 (SW480 cells; [3]): 2e-06 M

Compound: SFYDCLLDLSIGGPSSDWRRRCITA [Peptide F441]
- Activity (MCF7 cells): Antagonist

Compound: Ac-VEGROLFYDLLROLLAMRRNG [Peptide F235]
- inhibition of IGF-1R kinase activation by IGF-1 (purified HIGF-1R): completely inhibit
- IC50 in SW480 (M) in presence of IGF-1/alone: in presence of IGF-1 (SW480 cells; [1]): No effect

Compound: SFYSCLESLVAGPAEKSRGQWEGCRK [Peptide F259]
- inhibition of IGF-1R kinase activation by IGF-1 (purified HIGF-1R): completely inhibit
- IC50 (SW480 cells; [3]): 2e-06 M

Compound: CC[C@H](C)[C@H](NC(=O)[C@H](CS)NC(=O)[C@H](CCCNC(=N)N)NC(=O)[C@H](CCCNC(=N)N)NC(=O)[C@H](CCCNC(=N)N)NC(=O)[C@H](Cc1c[nH]c2ccccc12)NC(=O)CNC(=O)[C@H](Cc1ccccc1)NC(=O)[C@H](CO)NC(=O)[C@@H]1CCCN1C(=O)[C@@H](NC(=O)CNC(=O)[C@H](CC(C)C)NC(=O)[C@H](CO)NC(=O)[C@H](CC(C)C)NC(=O)[C@H](CC(=O)O)NC(=O)[C@H](CC(C)C)NC(=O)[C@H](CC(C)C)NC(=O)[C@H](CS)NC(=O)CNC(=O)[C@H](Cc1ccc(O)cc1)NC(=O)[C@H](Cc1ccccc1)NC(=O)[C@@H]1CCC(=O)N1)C(C)C)C(=O)N[C@H](C(=O)N[C@@H](C)C(=O)O)[C@@H](C)O [Peptide F138P]
- pIC50 (SW480 cells): 6.30
- inhibition of basal growth of SW480, doses (SW480 cells; without IGF-1): > 100 nM

Compound: QFYGCLLDLSLGVPSPGWRRRCITA [Peptide F393]
- pIC50 (SW480 cells; read-out: IC50, inhibition of IGF-1 (10 nM)-induced proliferation of SW480 cells, experiment 13262-027): 6.00
- pIC50 (SW480 cells; read-out: IC50, inhibition of IGF-1 (10 nM)-induced proliferation of SW480 cells, experiment 13262-029): 6.00

Compound: EFLTRLLERLGLSWERGEAGGPYAQAE [Peptide F175]
- IC50 in SW480 (M) in presence of IGF-1/alone: in presence of IGF-1 (SW480 cells; [1]): No effect

Compound: Ac-SFYSCLESLVQGPAEKSRGQWEGCRX [Peptide F369]
- pIC50 (SW480 cells; [4]): < 5.00
- pIC50 (SW480 cells; [5]): < 5.00

Compound: EISFRCQLFVLAGMHPCPVDVGGEGFE [Peptide F170]
- IC50 in SW480 (M) in presence of IGF-1/alone: in presence of IGF-1 (SW480 cells; [1]): No effect

Compound: SFYSCLESLVNGGAERSEGOWEGCR [Peptide F113]
- pIC50 (SW480 cells; [4]): < 5.00
- pIC50 (SW480 cells; [5]): < 5.00

Compound: SFYSCLESLVNGPAEKSRGQWDGCR [Peptide F249]
- IC50 (SW480 cells; [2]): > 1e-05 M
- IC50 (SW480 cells; [3]): > 1e-05 M
